Data: PubChem BioAssay (NCI)
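Five compound concentrations were applied to cells in 96-well plates for 48 hours; endpoints were derived by simple linear interpolation of the resulting dose-response curve. GI50: concentration for 50% inhibition of growth. TGI marks complete inhibition of growth.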

Columns and labels:
Test in all cases: DTP human tumour cell line panel, 48 h
CAKI-1 renal = test system: CAKI-1 renal
ACHN renal = test system: ACHN renal
IGROV1 ovarian = test system: IGROV1 ovarian
OVCAR-8 ovarian = test system: OVCAR-8 ovarian
SF-268 CNS = test system: SF-268 CNS
SNB-75 CNS = test system: SNB-75 CNS
HCC-2998 colon = test system: HCC-2998 colon
HOP-62 NSCLC = test system: HOP-62 NSCLC
SF-539 CNS = test system: SF-539 CNS
A498 renal = test system: A498 renal
HL-60(TB) leukemia = test system: HL-60(TB) leukemia
U251 CNS = test system: U251 CNS
T-47D breast = test system: T-47D breast
786-0 renal = test system: 786-0 renal
NCI-H460 lung = test system: NCI-H460 lung
OVCAR-4 ovarian = test system: OVCAR-4 ovarian
NCI-H522 lung = test system: NCI-H522 lung
SN12C renal = test system: SN12C renal
UACC-62 melanoma = test system: UACC-62 melanoma
SK-MEL-5 melanoma = test system: SK-MEL-5 melanoma
OVCAR-5 ovarian = test system: OVCAR-5 ovarian
UO-31 renal = test system: UO-31 renal
SF-295 CNS = test system: SF-295 CNS
M14 melanoma = test system: M14 melanoma
HOP-92 NSCLC = test system: HOP-92 NSCLC
EKVX NSCLC = test system: EKVX NSCLC
MDA-MB-435 = test system: MDA-MB-435
SK-OV-3 ovarian = test system: SK-OV-3 ovarian
CCRF-CEM leukemia = test system: CCRF-CEM leukemia
SR leukemia = test system: SR leukemia
DU-145 prostate = test system: DU-145 prostate
PC-3 prostate = test system: PC-3 prostate
A549 NSCLC = test system: A549 NSCLC
RPMI-8226 leukemia = test system: RPMI-8226 leukemia
KM12 colon = test system: KM12 colon
UACC-257 melanoma = test system: UACC-257 melanoma
K-562 leukemia = test system: K-562 leukemia
MCF7 breast = test system: MCF7 breast
HT29 colon = test system: HT29 colon
NCI/ADR-RES ovarian = test system: NCI/ADR-RES ovarian
BT-549 breast = test system: BT-549 breast
NCI-H23 lung = test system: NCI-H23 lung
SNB-19 CNS = test system: SNB-19 CNS
NCI-H226 lung = test system: NCI-H226 lung
OVCAR-3 ovarian = test system: OVCAR-3 ovarian
MDA-MB-231 breast = test system: MDA-MB-231 breast
COLO 205 colon = test system: COLO 205 colon
MOLT-4 leukemia = test system: MOLT-4 leukemia
RXF 393 renal = test system: RXF 393 renal
SK-MEL-28 melanoma = test system: SK-MEL-28 melanoma
TK-10 renal = test system: TK-10 renal
HS 578T breast = test system: HS 578T breast
SK-MEL-2 melanoma = test system: SK-MEL-2 melanoma
SW-620 colon = test system: SW-620 colon
LOX IMVI melanoma = test system: LOX IMVI melanoma
HCT-15 colon = test system: HCT-15 colon
HCT-116 colon = test system: HCT-116 colon

With `COc1ccc(Cn2cc3c(c2)-c2oncc2CC3)cc1OC` the GI50 (CAKI-1 renal) was 193 nM, the TGI (CAKI-1 renal) was greater than 31300 nM and the GI50 (ACHN renal) was 325 nM. The TGI (ACHN renal) was greater than 50000 nM, the GI50 (IGROV1 ovarian) was 391 nM and the TGI (IGROV1 ovarian) was greater than 46300 nM. For the same compound, the GI50 (OVCAR-8 ovarian) was 322 nM, the TGI (OVCAR-8 ovarian) was greater than 31700 nM and the GI50 (SF-268 CNS) was 430 nM. For the same compound, the TGI (SF-268 CNS) was greater than 50000 nM, the GI50 (SNB-75 CNS) was 123 nM and the TGI (SNB-75 CNS) was 761 nM. It also gave a GI50 (HCC-2998 colon) of 172 nM, a TGI (HCC-2998 colon) of 2540 nM and a GI50 (HOP-62 NSCLC) of 259 nM. For the same compound, the TGI (HOP-62 NSCLC) was greater than 50000 nM, the GI50 (SF-539 CNS) was 140 nM and the TGI (SF-539 CNS) was 559 nM. The GI50 (A498 renal) was 102 nM, the TGI (A498 renal) was 678 nM and the GI50 (HL-60(TB) leukemia) was 126 nM. For the same compound, the TGI (HL-60(TB) leukemia) was 439 nM, the GI50 (U251 CNS) was 211 nM and the TGI (U251 CNS) was greater than 28100 nM. The GI50 (T-47D breast) was 267 nM, the TGI (T-47D breast) was greater than 19300 nM and the GI50 (786-0 renal) was 536 nM. The TGI (786-0 renal) was greater than 21200 nM, the GI50 (NCI-H460 lung) was 161 nM and the TGI (NCI-H460 lung) was 890 nM. For the same compound, the GI50 (OVCAR-4 ovarian) was 643 nM, the TGI (OVCAR-4 ovarian) was greater than 50000 nM and the GI50 (NCI-H522 lung) was 146 nM. For the same compound, the TGI (NCI-H522 lung) was 677 nM, the GI50 (SN12C renal) was 331 nM and the TGI (SN12C renal) was greater than 50000 nM. For the same compound, the GI50 (UACC-62 melanoma) was 273 nM, the TGI (UACC-62 melanoma) was greater than 50000 nM and the GI50 (SK-MEL-5 melanoma) was 229 nM. It also gave a TGI (SK-MEL-5 melanoma) of 1700 nM, a GI50 (OVCAR-5 ovarian) of 339 nM and a TGI (OVCAR-5 ovarian) greater than 41900 nM. For the same compound, the GI50 (UO-31 renal) was 272 nM, the TGI (UO-31 renal) was 23800 nM and the GI50 (SF-295 CNS) was 150 nM. The TGI (SF-295 CNS) was 1710 nM, the GI50 (M14 melanoma) was 154 nM and the TGI (M14 melanoma) was 16000 nM. It also gave a GI50 (HOP-92 NSCLC) of 1150 nM, a TGI (HOP-92 NSCLC) of 36300 nM and a GI50 (EKVX NSCLC) of 233 nM. For the same compound, the TGI (EKVX NSCLC) was greater than 33700 nM, the GI50 (MDA-MB-435) was 77.4 nM and the TGI (MDA-MB-435) was 235 nM. It also gave a GI50 (SK-OV-3 ovarian) of 152 nM, a TGI (SK-OV-3 ovarian) of 1140 nM and a GI50 (CCRF-CEM leukemia) of 132 nM. For the same compound, the GI50 (SR leukemia) was 164 nM, the GI50 (DU-145 prostate) was 163 nM and the TGI (DU-145 prostate) was 544 nM. It also gave a GI50 (PC-3 prostate) of 395 nM, a TGI (PC-3 prostate) greater than 50000 nM and a GI50 (A549 NSCLC) of 283 nM. It also gave a TGI (A549 NSCLC) of 48400 nM, a GI50 (RPMI-8226 leukemia) of 190 nM and a GI50 (KM12 colon) of 180 nM. The TGI (KM12 colon) was 1270 nM, the GI50 (UACC-257 melanoma) was 1690 nM and the TGI (UACC-257 melanoma) was 22300 nM. The GI50 (K-562 leukemia) was 163 nM, the TGI (K-562 leukemia) was greater than 16600 nM and the GI50 (MCF7 breast) was 191 nM. The TGI (MCF7 breast) was greater than 41000 nM, the GI50 (HT29 colon) was 153 nM and the TGI (HT29 colon) was 1280 nM. The GI50 (NCI/ADR-RES ovarian) was 132 nM, the TGI (NCI/ADR-RES ovarian) was 1380 nM and the GI50 (BT-549 breast) was 344 nM. For the same compound, the TGI (BT-549 breast) was greater than 50000 nM, the GI50 (NCI-H23 lung) was 200 nM and the TGI (NCI-H23 lung) was greater than 25300 nM. It also gave a GI50 (SNB-19 CNS) of 258 nM, a TGI (SNB-19 CNS) greater than 50000 nM and a GI50 (NCI-H226 lung) of 704 nM. The TGI (NCI-H226 lung) was greater than 50000 nM, the GI50 (OVCAR-3 ovarian) was 134 nM and the TGI (OVCAR-3 ovarian) was 350 nM. It also gave a GI50 (MDA-MB-231 breast) of 255 nM, a TGI (MDA-MB-231 breast) greater than 14300 nM and a GI50 (COLO 205 colon) of 134 nM. For the same compound, the TGI (COLO 205 colon) was 346 nM, the GI50 (MOLT-4 leukemia) was 274 nM and the TGI (MOLT-4 leukemia) was greater than 12200 nM. The GI50 (RXF 393 renal) was 173 nM, the GI50 (SK-MEL-28 melanoma) was 326 nM and the TGI (SK-MEL-28 melanoma) was greater than 50000 nM. For the same compound, the GI50 (TK-10 renal) was 453 nM, the TGI (TK-10 renal) was greater than 50000 nM and the GI50 (HS 578T breast) was 132 nM. The TGI (HS 578T breast) was 447 nM, the GI50 (SK-MEL-2 melanoma) was 248 nM and the TGI (SK-MEL-2 melanoma) was 15100 nM. The GI50 (SW-620 colon) was 153 nM, the TGI (SW-620 colon) was greater than 50000 nM and the GI50 (LOX IMVI melanoma) was 366 nM. For the same compound, the TGI (LOX IMVI melanoma) was greater than 50000 nM, the GI50 (HCT-15 colon) was 214 nM and the TGI (HCT-15 colon) was greater than 50000 nM. The GI50 (HCT-116 colon) was 193 nM and the TGI (HCT-116 colon) was 8570 nM.
